Results reported in ChEMBL document CHEMBL5113408, “Design, synthesis and antitumour activity of novel 5(6)-amino-benzimidazolequinones containing a fused morpholine” (Eur J Med Chem, 2022).
The source made the active and inactive calls.

What was measured:
MGC-803 [1] = test: Induction of cell cycle arrest in human MGC-803 cells assessed as accumulation of cells at G1 phase at 1 uM incubated for 36 hrs by PI staining based flow cytometry analysis (reference value: 45.8%); type: functional
HGC-27 [2] = test: Induction of apoptosis in human HGC-27 cells assessed as increase in cleaved caspase 7 protein expression level at 1 to 4 uM incubated for 48 hrs by Western blot analysis; type: functional, cell-based; settings: dose 1-4 µM
MGC-803 [3] = test: Induction of apoptosis in human MGC-803 cells incubated for 48 hrs by Annexin-V FITC staining based flow cytometry analysis; type: functional, cell-based; settings: dose 1-4 µM, DDE = dose-dependent effect
MGC-803 [4] = test: Induction of DNA damage in human MGC-803 cells assessed as increase in gamma-H2AX generation incubated for 48 hrs by Western blot analysis; type: functional, cell-based; settings: DDE = dose-dependent effect
HGC-27 [5] = test: Induction of DNA damage in human HGC-27 cells assessed as appearance of longer comet tail at 4 uM; type: functional, cell-based
[6] = Toxicity in BALB/c mouse xenografted with human MGC-803 cells assessed as effect on creatinine level at 10 to 20 mg/kg, ip administered once every two days; type: organism-based; settings: in vivo, dose 10-20 mg/kg
MGC-803 [7] = test: Induction of cell cycle arrest in human MGC-803 cells assessed as accumulation of cells at S phase at 2 uM incubated for 36 hrs by PI staining based flow cytometry analysis (reference value: 20.5%); type: functional
HGC-27 [8] = test: Induction of apoptosis in human HGC-27 cells incubated for 48 hrs by Annexin-V FITC staining based flow cytometry analysis; type: functional, cell-based; settings: dose 1-4 µM, DDE = dose-dependent effect
[9] = Toxicity in BALB/c mouse xenografted with human MGC-803 cells assessed as effect on lung at 10 to 20 mg/kg, ip administered once every two days measured after 15 days by H and E staining based assay; type: organism-based; settings: in vivo, 360 h, dose 10-20 mg/kg, time 15 day
HGC-27 [10] = test: Induction of DNA damage in human HGC-27 cells assessed as increase in p-Chk generation incubated for 48 hrs by Western blot analysis; type: functional, cell-based; settings: DDE = dose-dependent effect
HGC-27 [11] = test: Induction of apoptosis in human HGC-27 cells assessed as decrease in caspase 7 protein expression level at 1 to 4 uM incubated for 48 hrs by Western blot analysis; type: functional, cell-based; settings: dose 1-4 µM
HGC-27 [12] = test: Induction of apoptosis in human HGC-27 cells assessed as increase in cleaved caspase 3 protein expression level at 1 to 4 uM incubated for 48 hrs by Western blot analysis; type: functional, cell-based; settings: dose 1-4 µM
HGC-27 [13] = test: Induction of cell cycle arrest in human HGC-27 cells assessed as accumulation of cells at S phase at 4 uM incubated for 36 hrs by PI staining based flow cytometry analysis (reference value: 8.87%); type: functional
MGC-803 [14] = test: Induction of DNA damage in human MGC-803 cells assessed as increase in p-Chk generation incubated for 48 hrs by Western blot analysis; type: functional, cell-based; settings: DDE = dose-dependent effect
MGC-803 [15] = test: Induction of apoptosis in human MGC-803 cells assessed as increase in cleaved caspase 7 protein expression level at 1 to 4 uM incubated for 48 hrs by Western blot analysis; type: functional, cell-based; settings: dose 1-4 µM
MGC-803 [16] = test: Induction of apoptosis in human MGC-803 cells assessed as decrease in caspase 3 protein expression level at 1 to 4 uM incubated for 48 hrs by Western blot analysis; type: functional, cell-based; settings: dose 1-4 µM
HGC-27 [17] = test: Induction of cell cycle arrest in human HGC-27 cells assessed as decrease in cyclin-B1 level at 1 to 4 uM by Western blot analysis; type: functional, cell-based; settings: dose 1-4 µM
MGC-803 [18] = test: Induction of mitochondrial membrane depolarization in human MGC-803 cells incubated for 48 hrs by flow cytometry analysis; type: functional, cell-based; settings: dose 1-4 µM, DDE = dose-dependent effect
HGC-27 [19] = test: Activation of ROS/JNK signalling in human HGC-27 cells assessed as increase in p-JNK level at 1 to 4 uM by Western blot analysis; type: cell-based; settings: filed as activator, dose 1-4 µM
[20] = Toxicity in BALB/c mouse xenografted with human MGC-803 cells assessed as effect on spleen at 10 to 20 mg/kg, ip administered once every two days measured after 15 days by H and E staining based assay; type: organism-based; settings: in vivo, 360 h, dose 10-20 mg/kg, time 15 day
HGC-27 [21] = test: Induction of cell cycle arrest in human HGC-27 cells assessed as accumulation of cells at G2/M phase at 1 uM incubated for 36 hrs by PI staining based flow cytometry analysis (reference value: 26.2%); type: functional
MGC-803 [22] = test: Induction of apoptosis in human MGC-803 cells assessed as increase in cleaved caspase 3 protein expression level at 1 to 4 uM incubated for 48 hrs by Western blot analysis; type: functional, cell-based; settings: dose 1-4 µM
HGC-27 [23] = test: Induction of cell cycle arrest in human HGC-27 cells assessed as accumulation of cells at G2/M phase at 2 uM incubated for 36 hrs by PI staining based flow cytometry analysis (reference value: 26.2%); type: functional
HeLa = test: Antiproliferative activity against human HeLa cells assessed as inhibition of cell growth by SRB assay; type: functional, cell-based
MGC-803 [24] = test: Activation of ROS/JNK signalling in human MGC-803 cells assessed as increase in p-ASK1 level by Western blot analysis; type: cell-based; settings: filed as activator, dose 1-4 µM, DDE = dose-dependent effect
MGC-803 [25] = test: Activation of ROS/JNK signalling in human MGC-803 cells assessed as increase in p-MKK4 level by Western blot analysis; type: cell-based; settings: filed as activator, dose 1-4 µM, DDE = dose-dependent effect
HGC-27 [26] = test: Inhibition of colony formation in human HGC-27 cells incubated for 24 hrs with fresh medium replacement for every two days measured for 11 days by crystal voilet staining based assay; type: functional, cell-based; settings: dose 0.5-2 µM, time 11.0 day, DDE = dose-dependent effect
MGC-803 [27] = test: Induction of DNA damage in human MGC-803 cells assessed as increase in gamma-H2AX generation incubated for 24 hrs by immunofluorescence analysis; type: functional, cell-based
HGC-27 [28] = test: Induction of apoptosis in human HGC-27 cells assessed as increase in cleaved caspase 9 protein expression level at 1 to 4 uM incubated for 48 hrs by Western blot analysis; type: functional, cell-based; settings: dose 1-4 µM
MGC-803 [29] = test: Antitumor activity against human MGC-803 cells xenografted with BALB/c mouse assessed as reduction in tumor growth at 10 to 20 mg/kg, ip administered once every two days; type: functional, organism-based; settings: dose 10-20 mg/kg
MGC-803 [30] = test: Antitumor activity against human MGC-803 cells xenografted with BALB/c mouse assessed as reduction in tumor weight at 10 to 20 mg/kg, ip administered once every two days; type: functional, organism-based; settings: dose 10-20 mg/kg
MGC-803 [31] = test: Induction of DNA damage in human MGC-803 cells assessed as appearance of longer comet tail at 4 uM; type: functional, cell-based
MGC-803 [32] = test: Antiproliferative activity against human MGC-803 cells assessed as inhibition of cell growth at 0.25 to 8 uM by SRB assay; type: functional, cell-based; settings: dose 0.25-8 µM, time 24-72 hrs, TDE = time-dependent effect
HGC-27 [33] = test: Induction of cell cycle arrest in human HGC-27 cells assessed as accumulation of cells at G1 phase at 4 uM incubated for 36 hrs by PI staining based flow cytometry analysis (reference value: 49.6%); type: functional
MGC-803 [34] = test: Induction of cell cycle arrest in human MGC-803 cells assessed as accumulation of cells at G2/M phase at 4 uM incubated for 36 hrs by PI staining based flow cytometry analysis (reference value: 20.5%); type: functional
HGC-27 [35] = test: Induction of ROS generation in human HGC-27 cells at 1 to 4 uM incubated for 24 hrs by flow cytometry analysis; type: functional, cell-based; settings: dose 1-4 µM

Cc1ccc(NC2=CC(=O)c3nc4n(c3C2=O)[C@H]2OC[C@@H](O)[C@H]2OC4)cc1C
39.3%: Activity (MGC-803 [7])
Non-Toxic: Activity [6] | Activity [9] | Activity [20]
active: Activity (HGC-27 [2]) | Activity (MGC-803 [3]) Dde | Activity (MGC-803 [4]) Dde | Activity (HGC-27 [5]) | Activity (HGC-27 [8]) Dde | Activity (HGC-27 [10]) Dde | Activity (HGC-27 [11]) | Activity (HGC-27 [12]) | Activity (MGC-803 [14]) Dde | Activity (MGC-803 [15]) | Activity (MGC-803 [16]) | Activity (HGC-27 [17]) | Activity (MGC-803 [18]) Dde | Activity (HGC-27 [19]) | Activity (MGC-803 [22]) | Activity (MGC-803 [24]) Dde | Activity (MGC-803 [25]) Dde | inhibition (HGC-27 [26]) Dde | Activity (MGC-803 [27]) | Activity (HGC-27 [28]) | Activity (MGC-803 [29]) | Activity (MGC-803 [30]) | Activity (MGC-803 [31]) | Activity (MGC-803 [32]) Tde | Activity (HGC-27 [35])
33.6%: Activity (MGC-803 [1])
28%: Activity (HGC-27 [33])
2690 nM: IC50 (HeLa)
14.4%: Activity (HGC-27 [13])
28.8%: Activity (HGC-27 [21])
28.2%: Activity (MGC-803 [34])
32.3%: Activity (HGC-27 [23])
